One data set relates to AD mice. Nature of the data set: Morris water maze test, comparison with anti-AD drugs. In kind it is in vivo. The following applies: AD mice aged 13 months. The procedure: Two known anti-AD drugs named […] memantine were administered separately to the mice. For these experiments, mice were tested for effects on memory and learning using the Morris water maze test, essentially as described in the previous example.

The nature of data set [1]: Magnesium absorption rate in rats (metabolic cages, urine and feces magnesium by ICP-AES). The following applies: Example 5, gluconate in skim milk or 5 weight percent lactose water, chloride in water. The protocol:
Fifty 3-month old, male Sprague Dawley (SD) rats were divided into five groups of ten rats. Rats of this age and older are considered adult. Each of the rats was placed in a separate metabolic cage equipped with urine- and feces-collecting wells. All of the rats were maintained in a temperature-controlled room (22° C. to 25° C.) with a dark period from 08:00 pm to 08:00 am daily. From day 1 through day 3, each rat was fed daily 15 g of magnesium-free food and de-ionized water. […] The medium was skim milk for Composition 1 and Group 1, milk prepared from powdered milk, by diluting the powdered milk with water to obtain a composition like that of skim milk, for Composition 2 and Group 2, 1% milk cream in water for Composition 3 and Group 3, water comprising 5 weight percent lactose for Composition 4 and Group 4, and water for the Control Composition and Control Group. […] From day 11 through day 12, each rat was fed daily 15 g of magnesium-free food and de-ionized water.
From day 4 through day 10, urine from each rat was collected daily. The collected urine from each rat was then pooled together and the total volume of the pooled urine from each rat was recorded. The pooled urine from each rat, in an amount of […], was analyzed for magnesium content using an inductively coupled plasma-atomic emission spectrometer (ICP-AES). From day 5 to day 11, feces from each rat were collected daily. The collected feces from each rat were pooled together and the pooled feces were weighed and homogenized. The pooled feces from each rat, in an amount of 0.5 g, were analyzed for magnesium content using an ICP-AES.
A formula was used to calculate a magnesium absorption rate for each rat. The formula used was Y=AX−B, wherein X was the average total daily magnesium intake, Y was the average net daily amount of magnesium absorbed, as calculated by X minus the average daily amount of magnesium excreted from feces, B was the average daily amount of magnesium excreted from feces when the magnesium intake was zero, and the slope A represented the magnesium absorption rate. Data points (X, Y) associated with each rat in each group often rats, with the exception of the best points and the worst points, were plotted. The value of A, the magnesium absorption rate, associated with each of Groups 1-4, and thus with each of the Compositions 1-4, was then obtained using linear regression. The value of A, the magnesium absorption rate, associated with the Control Group, and thus with the Control Composition, was also obtained using linear regression, and relabeled as A0. […]

The test system of data set [2] is aging rats (12-14 months old). The settings on record: for novel object exploration preference: single training. The procedure:
In this example, the effect of magnesium supplementation on recognition memory was tested. Three groups of rats were used in these experiments: 1) young rats (three months old); aging rats (12-14 months old), and; 3) magnesium-treated aging rats (12-14 months old, diet supplemented with 6 mg/kg MgCl2 from 8 months of age). We used experimentally naive, female, Sprague-Dawley young […], aging (12-14 month old) and […] rats (Charles River) at the beginning of the behavior experiments. They were housed two per cage with continuous access to food and water under a 12:12 light-dark cycle, with light onset at 8:00 a.m. […] All experiments involving animals were approved by the Massachusetts Institute of Technology's and Tsinghua University Committees on Animal Care.
The three groups of rats were tested for recognition memory using an object recognition test with a single exposure to the object during training. The task is based on the natural tendency of rodents to explore new objects and tests the animals' memory capacity for distinguishing novel versus familiar objects.
Briefly, the rats were first individually habituated to the personnel and then to open-field arena during 2 weeks. The rats were then allowed to explore two identical objects placed into the arena at fixed locations until they had accumulated 30 s of total inspection time (where this is defined as active exploration, sniffing or touching the object with the nose and/or forepaws) or for a maximum of 20 min. The rat was returned to the arena for the retention test and allowed to explore for another 30 sec. The retention intervals were 10 min and 24 hours. Objects were cleaned thoroughly between trials with 20% ethanol solution to ensure the absence of olfactory cues. The particular objects for a given trial were randomly determined, but each object was used for only one trial per rat. Memory of the familiar object is associated with increased exploration of the new object and an exploration index (% correct) is calculated as new object inspection time/30. […]

A further data set relates to aging rats. The protocol:
Three groups of animals (young, aging, and magnesium-treated aging rats) were used. […] Spatial working memory was assessed using a T-maze non-matching-to-place task. […] Spatial working memory was first assessed on an elevated T-maze. The maze was located 1 m above the floor in a well lit laboratory that contained various prominent distal extra-maze cues. The rats were handled and habituated to the maze for 10 days, and to Froot Loop® cereal over several days before the test. Each trial consisted of a sample run and a choice run, with delay intervals of 15 s during the training and the pattern completion tasks. On the sample run, the rats were forced either left or right by the presence of the block, according to a pseudorandom sequence (with equal numbers of left and right turns per session, and with no more than two consecutive turns in the same direction). A cereal reward was available in the food well at the end of the arm. The block was then removed, and the rat was allowed a free choice of either arm. The animal was rewarded for choosing the previously unvisited arm. Rats were run one trial at a time with an inter-trial interval of 10 min. Each daily session consisted of 6 trials.
The rats were tested for 10 consecutive days on a rewarded forced-choice alternation task. The percentage of correct choices (alternations) was recorded for each daily session. […] Then, spatial working memory was tested by a gradual increase of the delay between the sample and the choice trials (FIG. 10, right panel).

For another data set, the system named is diabetic patients. The settings on record: nearly 1 g of magnesium daily for 1 month; cited from earlier work.
Data set [3] deals with young (9-month old) and aged (25-month old) rats. The settings on record: food containing 2% for 8 days, cited from earlier work.
[4] abbreviates: relatively high magnesium dosage.
The mark [5] stands for this setting: relatively low magnesium dosage.

Where two headings read alike, the source gives them in different places.

Consider `COc1cc2c(cc1OC)C(=O)C(CC1CCN(Cc3ccccc3)CC1)C2` (stereo not drawn) [aricept], for which the “reducing the effects of AD on learning capacity” value in the data set with AD mice is “both being better at reducing the effects of AD on learning capacity than aricept”.

For the compound `[Cl-].[Cl-].[Mg+2]` [magnesium chloride], the magnesium absorption rate result in data set [1] (setting [4]) is reported as “less desirable”; in data set [1] (setting [5]), “suitable, but lower”. Moreover, the “novel object exploration preference” value in data set [2] (10 minute retention interval, aging rats, 6 mg/kg from 8 months of age) was “preferentially explored the novel object to the same extent as young rats”; in data set [2] (24 hours retention interval), “lose there ability to distinguish novel versus familiar objects”. For the same compound, in data set [2] (two training sessions separated by 10 minutes, 24-hour retention interval), the novel object preference result is listed as “retained a high level of preference”. Also, in the data set on aging rats (2 and 5 min delays, p<0.05), the “spatial working memory with increased delay” value is “significantly enhanced the performance of the aging rats at 2 and 5 min delays”. Moreover, in the data set with aging rats (15 sec delay, versus untreated aging rats, p<0.05), the “percentage of correct choices during training” value is listed as “performed significantly better from their first trials”. For the same compound, the “asymptotic choice accuracy level” value in the data set on aging rats (after 8 days of training, all three groups) was around 94%.

Take `[O]=[Mg]` [magnesium oxide]: in the data set with diabetic patients, the metabolic control result is on record as “only minor improvement in metabolic control”. Further, the side-effect entry in data set [3] is “diarrhea and weight loss”. Further, the cognitive function entry in data set [3] (gain transient) is reported as “some sign of improvement of cognitive function”.

As for `CC12CC3CC(C)(C1)CC(N)(C3)C2` [memantine], the “reducing the effects of AD on learning capacity” value in the data set with AD mice is listed as “better at reducing the effects of AD on learning capacity than aricept”.

As for magnesium gluconate, the results for the magnesium absorption rate result in data set [1] (setting [4]) and in data set [1] (setting [5]) were “suitably close to those associated with the lower dosage compositions” and “suitable magnesium absorption rates”, respectively.
